Laboratory results from PubChem BioAssay (NCI).
Several values for one entry are separate records, joined by “and”; a condition that tells them apart may be missing. Equal values may be shown once.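 Values below derive from 48-hour exposures of cells grown in 96-well plates, with endpoints linearly interpolated between the two concentrations bracketing the appropriate inhibition level. Here, GI50 denotes the concentration required for 50% inhibition of growth. At the TGI there is no net growth.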

Tested on: MDA-MB-468 breast
Experiment: growth of human tumour cells (NCI), 48 h

Row | SMILES | GI50 | TGI
1 | O=c1n(CC2CO2)c(=O)n(CC2CO2)c(=O)n1CC1CO1 (stereo not drawn) | 2260 nM | 11300 nM
2 | CC(SC(C)C(=O)N/N=C/c1cccc(Cl)c1)C(=O)N/N=C\c1cccc(Cl)c1 (stereo not drawn) | 21700 nM | 52900 nM
3 | CNCCCn1cc(C2=C(c3cn(C)c4ccccc34)C(=O)NC2=O)c2ccccc21 | 3590 nM | 7330 nM
4 | Cc1ccc(C(SCC(N)C(=O)O)(c2ccccc2)c2ccc(C)cc2)cc1 (stereo not drawn) | 118 nM | 533 nM
5 | Cc1ccc2c(n1)C(=O)c1[nH]c3ccccc3c1C2=O | 510 nM | 3300 nM
6 | C=C(C)[C@@]12OC3(/C=C/C=C/CCCCC)O[C@@H]1[C@@H]1[C@@H]4O[C@]4(CO)[C@@H](O)[C@]4(O)C(=O)C(C)=C[C@H]4[C@@]1(O3)[C@H](C)[C@H]2OC(=O)c1ccccc1 | 1370 nM | 2920 nM
7 | O=S(=O)(Nc1cc(F)cc(Cl)c1)c1ccc(-c2cnc(C3CC3)o2)cc1 | 491 nM | 6780 nM
8 | NC(=NCCCOc1ccc(Cl)cc1)Nc1ccc(C(F)(F)F)cc1 | 1630 nM | 3610 nM
9 | C#Cc1cccc(Nc2ncnc3cc(OC)c(OCCCCCCC(=O)NO)cc23)c1 | 7.53 nM | 81.4 nM
10 | C[C@H]1c2cccc(O)c2C(O)=C2C(=O)[C@]3(O)C(O)=C(C(N)=O)C(=O)[C@@H](N(C)C)[C@@H]3[C@@H](O)[C@@H]21 | 2050 nM | 6440 nM
11 | COc1cc(C2c3cc4c(cc3OC(N3CCCC3)C2C)OCO4)cc(OC)c1O (stereo not drawn) | 17500 nM | > 100000 nM
12 | Clc1ccc2c(NCCCNc3nccc(Nc4ccc(Br)cc4)n3)ccnc2c1 | 1610 nM | 3210 nM
13 | COc1ccc(C2CC(c3cccc(Nc4ccncc4)c3)=NN2c2cc(Cl)cc(Cl)c2)cc1 (stereo not drawn) | 1630 nM | 3290 nM
14 | CC/C(=C(/c1ccc(OCCN(C)C)cc1)c1ccc(OC(=O)CCCCC(=O)c2c(C)[nH]c(/C=C3\N=C(c4ccc[nH]4)C=C3OC)c2C)cc1)c1ccccc1 | 2470 nM | 14700 nM
15 | CCN1CCN(c2ccc(Nc3cc(N(C)C(=O)Nc4c(Cl)c(OC)cc(OC)c4Cl)ncn3)cc2)CC1 | 3010 nM | 11700 nM
16 | Oc1ccc(Cl)cc1Cc1cc(Cl)cc(Cl)c1O | 2790 nM | 9410 nM
17 | CCC[CH2][Sn]([CH2]CCC)([CH2]CCC)[O]C(=O)CC | 127 nM | 258 nM
18 | COCCOc1cc(F)c2c(Nc3ccc(NC(=O)Cn4cc(C(C)C)nn4)cc3)ncnc2c1 | 57100 nM | > 100000 nM
19 | CC(C)c1ccc(Nc2ccc3c(OCCCN4CCN(C)CC4)cccc3n2)cc1 | 12300 nM | 26000 nM
20 | O=[N+]([O-])c1ccc(C=C2C(Cl)=C(Cl)C(Cl)=C2Cl)cc1 | 1700 nM | 3350 nM
21 | O=C1NC(=Nc2ccccc2)S/C1=C\c1ccc2ncccc2c1 | 2060 nM | > 25000 nM
22 | O=C(OCc1ccc2cccc(O)c2n1)N1CCN(C(=O)c2cc3cc(F)ccc3[nH]2)CC1 | 1510 nM | 3280 nM

Row | SMILES | GI50 | TGI
23 | C=C(F)C(=O)N1CCN(c2nc(OC[C@@H]3CCCN3C)nc3c2CCN(c2cccc4cccc(Cl)c24)C3)C[C@@H]1CC#N | 1220 nM | 2580 nM
24 | COc1ccc(C(=O)c2cc(OC)c(C)c(OC)c2)cc1OC(=O)CCl | 2390 nM | 21600 nM
25 | COc1cc(C(=O)c2cc(C)c3[nH]c4ccc(Cl)cc4c3c2C)cc(OC)c1OC | 38.5 nM | 4840 nM
26 | O=C(Nc1ccc(OS(=O)(=O)c2ccccc2)cc1)C12CC3CC(CC(C3)C1)C2 | 3800 nM | > 100000 nM
27 | COc1cc2c(cc1OC)C(Sc1ccc(C)cc1)c1c(nc(N)c(C#N)c1N)O2 (stereo not drawn) | 1160 nM | 2500 nM
28 | Cn1cc(C2=C(c3ccc4ccccc4c3)C(=O)NC2=O)c2ccccc21 | 6240 nM | > 25000 nM
29 | Ic1ccc(Nc2nc3nonc3nc2Nc2ccc(I)cc2)cc1 | 174 nM | 1690 nM
30 | NCCCNc1nc2ccccc2c2c(=O)c3cc(OC(F)(F)F)ccc3sc12 | 1760 nM | 3420 nM
31 | Cn1c(=O)c2c(nc(Nc3cc(=O)[nH]c(=O)[nH]3)n2Cc2ccccc2)n(C)c1=O | 54800 nM | > 100000 nM
32 | COc1ccc2c(c1)C(C)Cc1c(Cl)ncnc1N2C (stereo not drawn) | 276 nM | 804 nM
33 | COC(=O)/C=C/c1cc(O)c2oc(-c3ccc(O)c(O)c3)c(C(=O)OC)c2c1 | 1820 nM | 12900 nM
34 | Cc1nc(N)sc1-c1ccnc(Nc2ccc(N3CCOCC3)cc2)n1 | 611 nM | > 100000 nM
35 | CC1OC2CC(=O)OC2C2=C1C(=O)c1c(O)cccc1C2=O (stereo not drawn) | 20.8 nM | 52.5 nM
36 | CCOc1nc(-c2ccccc2)cc2c(O)c(-c3nnco3)[nH]c(=O)c12 | 1550 nM | > 25800 nM
37 | Cc1c2cccnc2c(C)c2c1c1cc(CO)ccc1n2C | 183 nM | 561 nM
38 | C/C(=C\CCc1ccoc1)CC/C=C(\C)CCCC1=CC(=O)OC1 | 2190 nM | 8410 nM
39 | CC[C@]12C=CCN3CC[C@@]4(c5ccc(OC)cc5N(C)[C@H]4[C@@](O)(C(=O)OC)[C@@H]1OC(=O)CCC[P+](c1ccccc1)(c1ccccc1)c1ccccc1)[C@@H]32 | 123 nM and 217 nM | 377 nM and 653 nM
40 | COc1ccc(N(C)c2ncnc3occ(C)c23)cc1 | < 10 nM | 15400 nM
41 | COc1cc(Nc2cn[nH]c2-c2ccc(Cl)cc2)cc(OC)c1OC | 1600 nM | 6400 nM
42 | C=C(C=O)C1CCC2(C(=O)O)CCC3(C)C(CCC4C5(C)CCC(O)C(C)(C)C5CCC43C)C12 (stereo not drawn) | 3270 nM | 20600 nM
43 | COc1ncnc(C2CC2)c1-c1ncc2cnn(Cc3ccc(-c4nc(C(F)(F)F)cn4C(C)C)cc3)c2n1 | 3770 nM | 38300 nM
44 | CC(C)(C)C(=O)OCOP(=O)(OCOC(=O)C(C)(C)C)C1CCCN(O)C1=O (stereo not drawn) | 977 nM | 5480 nM
